For experiment [1], the system named is HepG2 cells. The experiment is described as follows: In vitro wound-healing assay in HepG2 cells. In kind it is cell-based. The note with it: Figure 3. Here is the method:
(§1) The suppressive effect of 5r on cell migration was assessed through in vitro wound-healing assay. HepG2 and Huh7 cells were grown to approximately 100% confluence to form a monolayer in a 96-well microplate. Wounds were formed through 96-well wound maker (Essen BioScience, Ann Arbor, MI, USA). Then, growth medium was removed and washed out twice with phosphate-buffered saline (PBS) and incubated with 200 μL of DMEM and RPMI 1640 medium containing 5r or vehicle (DMSO). Images of the wound area were taken by using IncuCyte ZOOM (Essen BioScience, Ann Arbor MI, USA), and the percentage of wound closure was measured by using IncuCyte software.
(§2) Figure 3 Inhibitory effect of 5r on cell migration in HepG2 and Huh7 cells. (A,B) In vitro wound-healing assay was performed in HepG2 and Huh7 cells (mean ± S.D., n = 3). HepG2 and Huh7 cells were treated with the indicated concentrations of 5r, and time-lapse images were acquired every 2 h after wound infliction. (C,D) Representative images were taken at 0, 48, or 72 h following administration of 5r at the indicated concentrations.

For experiment [2], the system named is HepG2 cells. Briefly: Flow cytometry cell cycle analysis (propidium iodide) in HepG2 cells. The experiment is classed as cell-based. The note with it: 3 µM 5r for 24 h. Here is the method: HepG2 cells were grown to approximately 40% confluence in a 6-well plate and then 5r was treated for 24 h. After 24 h, HepG2 cells were washed out twice with PBS and centrifuged at 1000 RPM for 2 min at room temperature. The cells were stained with propidium iodide for 15 min and then cell cycle phases were measured by using FACS (Beckman Coulter, Fullerton, CA, USA).
Figure 5 Effect of 5r on cell cycle in HepG2 cells. (A,B) HepG2 cells were treated with 3 µM 5r for 24 h and then cell cycle phases were measured by propidium iodide staining, followed by flow cytometry analysis.
Background: A flow cytometer gives signals particle by particle.

The next experiment has as its system HaCaT cells. The experiment is described as follows: Cell viability assay (MTS) in HaCaT cells. The experiment is classed as cell-based, human. Here is the method: (§3) HepG2, Huh7, H1299, HT29, AGS and A549 cells were purchased from the Korean Cell Line Bank (Seoul, Korea) and HaCaT cells were obtained from Prof. Sohee Kwon (Yonsei University, Korea). Liver cancer cells (HepG2), human keratinocyte cells (HaCaT), and lung cancer cells (A549) were grown in DMEM high-glucose medium, liver cancer cells (Huh7) and non-small cell lung cancer cells (H1299) were grown in RPMI 1640, and gastric cancer cells (AGS) were grown in Coon’s modified F12 medium. All media were supplemented with 10% FBS, 100 Units/mL penicillin, and 100 μg/mL streptomycin. All cells were incubated at 37 °C, 5% CO2 and 95% humidity.
(§4) Cell viability assay was conducted using Cell Titer 96® AQueous One Solution Cell proliferation Assay kit (Promega, Madison, WI, USA). Five cancer cells and HaCaT cells were plated in 96-well microplates with growth medium for 24 h. When cell confluency reached ~30%, cells were treated with DMSO (vehicle) and test compounds. The medium and test compounds were replaced every 24 h. To measure cell viability, the cells were incubated with MTS solution for 1 h. The absorbance was measured by using Infinite M200 microplate reader (Tecan, Männedorf, Switzerland) at 490 nm.
(§5) Figure 2 Effect of 5r on cell viability in HepG2, Huh7, AGS, H1299, A549, HaCaT, NIH3T3, and HEK293T cells. (A–H) HepG2, Huh7, AGS, H1299, A549, HaCaT, NIH3T3, and HEK293T cells were cultured with 5r at the indicated concentrations for 72 h, and medium was replaced every 24 h with freshly added 5r. Cell viability was measured by MTS analysis (mean ± S.D., n = 5). * p < 0.05, ** p < 0.01, *** p < 0.001.

Experiment [3] has as its system Huh7 cells. The experiment is described as follows: Cell viability assay (MTS) in Huh7 cells. The note with it: Homo sapiens, Huh-7, mean, n = 5, 72 h for 5r (Figure 2). The experiment is classed as cell-based. As to the method: as §3, §4, §5
For the next experiment, the system named is NIH3T3 cells. The experiment is described as follows: Cell viability assay (MTS) in NIH3T3 cells. Particulars: 72 h, Figure 2G. The experiment is classed as cell-based. Here is the method:
as §4, §5

Experiment [4] deals with caspase-3. The experiment is described as follows: Caspase-3 activity assay in Huh7 cells. The experiment is classed as cell-based. The note with it: 3 µM 5r for 24 h, Figure 4B. As to the method:
(§6) HepG2 and Huh7 cells were plated in 96-black-well plate to about 40% confluence, and then 5r was treated for 24 h. To assess activity of caspase-3, the growth medium was changed with 100 μL of PBS containing 1 μM caspase-3 substrate, NucView 488, and incubated at room temperature. After 20 min, 1 μM Hoechst 33342 was treated to stain the cells. Activity of caspase-3 was suppressed by Ac-DEVD-CHO, a selective caspase-3 inhibitor. FLUOstar Omega microplate reader (BMG Labtech, Ortenberg, Germany) was used to assess the fluorescence of NucView 488 and Hoechst, and Lionheart FX Automated Microscope (BioTek, Winooski, VT, USA) was used to acquire the fluorescence microscopy images.
(§7) Figure 4 Effect of 5r on activity of caspase-3 and cleavage of PARP in HepG2 and Huh7 cells. (A,B) HepG2 and Huh7 cells were incubated with 3 µM 5r for 24 h and then incubated with 1 µM caspase-3 substrate (green) and 1 µM Hoechst 33,342 (blue) for 20 min before image acquisition. (C,D) Cells were cultured with 5r at the indicated concentrations for 24 h and then 1 μM caspase-3 substrate was treated for 20 min. Caspase-3 was inhibited by 20 μM Ac-DEVD-CHO (mean ± S.D., n = 3). (E,F) Cells were cultured with 5r at the indicated concentrations for 24 h, and expression level of PARP, cleaved-PARP and β-actin were measured by Western blot analysis. […]

Experiment [5] relates to Huh7 cells. The experiment is described as follows: In vitro wound-healing assay in Huh7 cells. The experiment is classed as cell-based. The note with it: Figure 3. As to the method: as §1, §2
Experiment [6] deals with HepG2 cells. Briefly: Cell viability assay (MTS) in HepG2 cells. In kind it is cell-based. The note with it: Homo sapiens, MTS, mean, n = 5, 72 h for 5r (Figure 2).
For experiment [7], the system named is HepG2 cells. Briefly: Combination of 5r with gemcitabine, cell viability (MTS) in HepG2 cells. In kind it is cell-based. Particulars: co-treatment with gemcitabine (0.3 μM), 72 h. Here is the method:
as §4
Figure 6 Combination effect of 5r and gemcitabine on cell viability in HepG2 and Huh7 cells. (A,B) HepG2 and Huh7 cells were cultured with the indicated concentrations of 5r and gemcitabine (0.3 μM) for 72 h, and medium was replaced every 24 h with freshly added 5r and gemcitabine. Cell viability was determined by MTS analysis (mean ± S.D., n = 5). ** p < 0.01, *** p < 0.001.

The subject of experiment [8] is caspase-3. The experiment is described as follows: Caspase-3 activity assay in HepG2 cells. In kind it is cell-based. Particulars: 3 µM 5r for 24 h, Figure 4A. Here is the method: as §6, §7

Each structure is given as a SMILES string.

By IC50 is commonly meant the concentration that inhibits the measured activity by half. A higher IC50 goes with weaker potency in that assay. As to `N#Cc1c2c3cccn3c(-c3ccccc3O)nc2n2ccccc12` [Compound 5r, 5-(2-Hydroxyphenyl)pyrrolo[1′,2′:1,6]pyrimido[5,4-b]indolizine-12-carbonitrile], the “Effect on cell migration (wound closure) in HepG2 cells” value in the experiment on HepG2 cells [1] is reported as “significantly inhibited cell migration in a dose-dependent manner”. In addition, the “Ratio in the G2/M phase” value with HepG2 cells [2] was “did not affect”. For the same compound, in the experiment with HepG2 cells [2] (control 24.1%), the “Sub-G1 (apoptotic peak) phase ratio” value came to 56.9%. Also, the G0/G1 phase ratio in the experiment with HepG2 cells [2] (control 64.6%) is 29.3%. In addition, in the experiment on HaCaT cells (72 h, Figure 2F), the “Effect on cell viability in non-cancerous HaCaT cells” value was “weakly decreased cell viability”. In addition, the IC50 in the experiment with HaCaT cells (Homo sapiens, mean, n = 5) is 6.91 µM; with Huh7 cells [3] it was 0.1 µM; in the experiment with HepG2 cells [6], 0.22 µM. Moreover, the “Effect on cell viability in non-cancerous NIH3T3 cells” value with NIH3T3 cells is listed as “weakly decreased cell viability”. In addition, the “Caspase-3 activity in Huh7 cells” value with caspase-3 [4] is “potently increased caspase-3 activity”. Also, the “Effect on cell migration (wound closure) in Huh7 cells” value in the experiment on Huh7 cells [5] is recorded as “significantly inhibited cell migration in a dose-dependent manner”. Moreover, the “Combination effect with gemcitabine on cell viability in HepG2 cells” value in the experiment with HepG2 cells [7] is “additional effect rather than a synergistic effect”. Besides, the “Caspase-3 activity in HepG2 cells” value in the experiment with caspase-3 [8] is “potently increased caspase-3 activity”.

The record behind these values is paper PMC9694334, “Synthesis and Biological Evaluation of a Fused Structure of Indolizine and Pyrrolo[1,2-c]pyrimidine: Identification of Its Potent Anticancer Activity against Liver Cancer Cells” (Pharmaceuticals, 2022).
